Data set [1] relates to PMP flushing. How it is done:
Three women who were referred for treatment of severe PMP flushing were included in the pilot study, after signing an informed consent. All three had frequent and severe flushing, during daytime as well as during the night. Sleep was often disturbed by flushes and sweat attacks, often forcing a change of clothes and/or bed linen. Physical examination in these patients was unremarkable and other causes of flushing were excluded. Thyroid function was normal, 24 hour urinary hydroxy-indol-acetic acid and catecholamines were within the reference range, serum tryptase was normal, and none used any medication known to induce flushing.

For data set [2], the system named is PMP flushing. The following applies: in vivo; cited from earlier work.
The test system of data set [3] is breast cancer. The settings on record: breast cancer survivors; cited from earlier work.

Read-outs that look alike come from different tables or passages of the source.

Consider `Clc1cccc(Cl)c1N=C1NCCN1` [Clonidine], for which the Effect on flushing result is given as “no beneficial effect” in data set [1] (Patient 1, up to 75 μg twice a day); “no beneficial effect” in data set [1] (Patient 2, 50 μg twice a day); “no effect whatsoever” in data set [1] (Patient 3, 75 μg twice a day). In data set [1] (all three patients, previous use), the Benefit on flushing result is on record as “without experiencing a significant benefit”.
Turning to `NCC1(CC(=O)O)CCCCC1` [gabapentin], in data set [2], the “Effectiveness against PMP flushing relative to placebo treatment” value is “about twice as effective as placebo treatment”.
In the case of `Fc1ccc([C@@H]2CCNC[C@H]2COc2ccc3c(c2)OCO3)cc1` [paroxetine], the “Effectiveness against PMP flushing relative to placebo treatment” value in data set [2] is “about twice as effective as placebo treatment”.
Take `COc1ccc(C(CN(C)C)C2(O)CCCCC2)cc1` (stereo not shown) [venlafaxine]: in data set [2], the “Effectiveness against PMP flushing relative to placebo treatment” value is listed as “about twice as effective as placebo treatment”.
estrogen: in data set [2], the “Effectiveness against PMP flushing relative to placebo treatment” value is reported as “four times as effective” and the “Reduction of PMP flush frequency” value is 80-90%. In addition, the “Increased risk of a new primary or a breast cancer recurrence” value in data set [3] is recorded as “three-fold”.

The record behind these values is patent US20120053122A1, “METHOD FOR THE PROPHYLAXIS OR TREATMENT OF FLUSHING” (priority 2009, published 2012).
